# Source: ChEMBL document CHEMBL1144616, “Synthesis and biological evaluation of 7-azaindole derivatives, synthetic cytokinin analogues” (Bioorg Med Chem Lett, 2007)
# Activity calls are given as the source filed them. The calls are words filed in the database; no cut-off is given here.
# Key:
# HL-60 [1] = test: Proapoptotic effect in human HL60 cells at 500 uM; format: functional, cell-based
# HL-60 [2] = test: Antiproliferative activity against human HL60 cells; format: functional, cell-based
# HL-60 [3] = test: Proapoptotic effect in human HL60 cells at 10 uM; format: functional, cell-based
# HL-60 [4] = test: Cell cycle arrest in human HL60 cells assessed as increase in preG1 fraction relative to control; format: functional
IC50 (HL-60 [2]),SMILES,Activity (HL-60 [1]),Activity (HL-60 [3]),Activity (HL-60 [4])
> 100 µM,Cn1ccc2c(N3CCN(c4ccccc4)CC3)ccnc21,Active,–,–
23.5 µM,c1ccc(Nc2ccnc3[nH]ccc23)cc1,–,Active,39.9%
> 100 µM,Cn1ccc2c(Nc3ccccc3)ccnc21,Active,–,–
> 100 µM,Cn1ccc2c(NCc3ccccc3)ccnc21,Active,–,–
23.6 µM,c1ccc(N2CCN(c3ccnc4[nH]ccc34)CC2)cc1,–,Active,–
> 100 µM,Cn1ccc2c(NCCc3ccccc3)ccnc21,Active,–,–
12.6 µM,c1ccc(CNc2ccnc3[nH]ccc23)cc1,–,Active,–
23.7 µM,c1ccc(CCNc2ccnc3[nH]ccc23)cc1,–,Active,–

SMILES,IC50 (HL-60 [2]),Activity (HL-60 [1]),Activity (HL-60 [3]),Activity (HL-60 [4])
c1ccc(CNc2ncnc3[nH]cnc23)cc1 [6-BENZYLAMINOPURINE],> 100 µM,–,–,–
c1coc(CNc2ncnc3[nH]cnc23)c1 [KINETIN],21.9 µM,–,–,–
